{"source": "ChEMBL document CHEMBL3882389", "about": "“Phosphatidylinositol 3-Kinase Inhibitors for the Treatment of Lymphoproliferative Malignancies” (2014)", "key": {"[1]": {"test": "Toxicity in patient with chronic lymphocytic leukemia and lymphoma assessed as incidence of rash at 600 mg, po qd for 21 days co-administered with paclitaxel and carboplatin during phase 1 open label non-randomized trial relative to control", "type": "organism-based", "conditions": "human, in vivo, 504 h"}, "[2]": {"test": "Toxicity in patient with chronic lymphocytic leukemia and lymphoma assessed as incidence of anemia at 600 mg, po qd for 21 days during phase 1 open label non-randomized trial relative to control", "type": "organism-based", "conditions": "human, in vivo, 504 h"}, "[3]": {"test": "Toxicity in po dosed patient with chronic lymphocytic leukemia and lymphoma assessed as induction of grade 3 rash at 600 mg, po administered once daily for continuous 21 days", "type": "organism-based", "conditions": "human, in vivo, 504 h"}, "[4]": {"test": "Toxicity in patient with chronic lymphocytic leukemia and lymphoma assessed as incidence of hyperglycemia at 600 mg, po qd for 21 days during phase 1 open label non-randomized trial relative to control", "type": "organism-based", "conditions": "human, in vivo, 504 h"}, "[5]": {"test": "Toxicity in patient with chronic lymphocytic leukemia and lymphoma assessed as incidence of dyspnea at 600 mg, po qd for 21 days during phase 1 open label non-randomized trial relative to control", "type": "organism-based", "conditions": "human, in vivo, 504 h"}, "[6]": {"test": "Toxicity in patient with chronic lymphocytic leukemia and lymphoma assessed as incidence of grade more than equal 3 pruritus at 600 mg, po qd for 21 days co-administered with paclitaxel and carboplatin during phase 1 open label non-randomized trial relative to control", "type": "organism-based", "conditions": "human, in vivo, 504 h"}, "[7]": {"test": "Toxicity in patient with chronic lymphocytic leukemia and lymphoma assessed as incidence of grade more than equal 3 cough at 600 mg, po qd for 21 days co-administered with paclitaxel and carboplatin during phase 1 open label non-randomized trial relative to control", "type": "organism-based", "conditions": "human, in vivo, 504 h"}, "[8]": {"test": "Toxicity in patient with chronic lymphocytic leukemia and lymphoma assessed as incidence of neutrophenia at 600 mg, po qd for 21 days co-administered with paclitaxel and carboplatin during phase 1 open label non-randomized trial relative to control", "type": "organism-based", "conditions": "human, in vivo, 504 h"}, "[9]": {"test": "Toxicity in patient with chronic lymphocytic leukemia and lymphoma assessed as incidence of abdominal pain at 600 mg, po qd for 21 days during phase 1 open label non-randomized trial relative to control", "type": "organism-based, Abdomen", "conditions": "human, in vivo, 504 h"}, "[10]": {"test": "Toxicity in patient with chronic lymphocytic leukemia and lymphoma assessed as incidence of cough at 600 mg, po qd for 21 days during phase 1 open label non-randomized trial relative to control", "type": "organism-based", "conditions": "human, in vivo, 504 h"}, "[11]": {"test": "Toxicity in patient with chronic lymphocytic leukemia and lymphoma assessed as incidence of diarrhea at 600 mg, po qd for 21 days during phase 1 open label non-randomized trial relative to control", "type": "organism-based", "conditions": "human, in vivo, 504 h"}, "[12]": {"test": "Toxicity in po dosed patient with chronic lymphocytic leukemia and lymphoma assessed as induction of grade 3 hypersensitivity at 600 mg, po once daily for continuous 21 daysrest", "type": "organism-based", "conditions": "human, in vivo"}, "[13]": {"test": "Toxicity in patient with chronic lymphocytic leukemia and lymphoma assessed as incidence of grade more than equal 3 anemia at 600 mg, po qd for 21 days during phase 1 open label non-randomized trial relative to control", "type": "organism-based", "conditions": "human, in vivo, 504 h"}, "[14]": {"test": "Toxicity in patient with chronic lymphocytic leukemia and lymphoma assessed as incidence of dyspnea at 600 mg, po qd for 21 days co-administered with paclitaxel and carboplatin during phase 1 open label non-randomized trial relative to control", "type": "organism-based", "conditions": "human, in vivo, 504 h"}, "[15]": {"test": "Toxicity in po dosed patient with chronic lymphocytic leukemia and lymphoma assessed as induction of grade 3 rash at 600 mg, po administered once daily for 21 days followed by 7 days rest", "type": "organism-based", "conditions": "human, in vivo"}, "[16]": {"test": "Toxicity in patient with chronic lymphocytic leukemia and lymphoma assessed as incidence of cough at 600 mg, po qd for 21 days co-administered with paclitaxel and carboplatin during phase 1 open label non-randomized trial relative to control", "type": "organism-based", "conditions": "human, in vivo, 504 h"}, "[17]": {"test": "Toxicity in patient with chronic lymphocytic leukemia and lymphoma assessed as incidence of diarrhea at 600 mg, po qd for 21 days co-administered with paclitaxel and carboplatin during phase 1 open label non-randomized trial relative to control", "type": "organism-based", "conditions": "human, in vivo, 504 h"}, "[18]": {"test": "Toxicity in patient with chronic lymphocytic leukemia and lymphoma assessed as incidence of hyperglycemia at 600 mg, po qd for 21 days co-administered with paclitaxel and carboplatin during phase 1 open label non-randomized trial relative to control", "type": "organism-based", "conditions": "human, in vivo, 504 h"}, "[19]": {"test": "Toxicity in patient with chronic lymphocytic leukemia and lymphoma assessed as incidence of grade more than equal 3 fatigue at 600 mg, po qd for 21 days co-administered with paclitaxel and carboplatin during phase 1 open label non-randomized trial relative to control", "type": "organism-based", "conditions": "human, in vivo, 504 h"}, "[20]": {"test": "Toxicity in patient with chronic lymphocytic leukemia and lymphoma assessed as incidence of pruritus at 600 mg, po qd for 21 days during phase 1 open label non-randomized trial relative to control", "type": "organism-based", "conditions": "human, in vivo, 504 h"}, "[21]": {"test": "Toxicity in patient with chronic lymphocytic leukemia and lymphoma assessed as incidence of grade more than equal 3 dyspnea at 600 mg, po qd for 21 days co-administered with paclitaxel and carboplatin during phase 1 open label non-randomized trial relative to control", "type": "organism-based", "conditions": "human, in vivo, 504 h"}, "[22]": {"test": "Toxicity in po dosed patient with chronic lymphocytic leukemia and lymphoma assessed as induction of grade 3 hypersensitivity at 600 mg, po administered once daily for 21 days followed by 7 days rest", "type": "organism-based", "conditions": "human, in vivo"}, "[23]": {"test": "Toxicity in patient with chronic lymphocytic leukemia and lymphoma assessed as incidence of fatigue at 600 mg, po qd for 21 days co-administered with paclitaxel and carboplatin during phase 1 open label non-randomized trial relative to control", "type": "organism-based", "conditions": "human, in vivo, 504 h"}, "Homo sapiens [24]": {"test_system": "Homo sapiens", "test": "In vivo inhibition of PI3K in hair follicle of po dosed solid tumor patient administered once daily", "type": "functional, organism-based"}, "Homo sapiens [25]": {"test_system": "Homo sapiens", "test": "In vivo inhibition of PI3K in PBMC of po dosed solid tumor patient administered once daily", "type": "functional, organism-based"}, "[26]": {"test": "Toxicity in patient with chronic lymphocytic leukemia and lymphoma assessed as incidence of grade more than equal 3 abdominal pain at 600 mg, po qd for 21 days co-administered with paclitaxel and carboplatin during phase 1 open label non-randomized trial relative to control", "type": "organism-based, Abdomen", "conditions": "human, in vivo, 504 h"}, "[27]": {"test": "Toxicity in patient with chronic lymphocytic leukemia and lymphoma assessed as incidence of rash at 600 mg, po qd for 21 days during phase 1 open label non-randomized trial relative to control", "type": "organism-based", "conditions": "human, in vivo, 504 h"}, "Homo sapiens [28]": {"test_system": "Homo sapiens", "test": "In vivo inhibition of PI3K in skin of po dosed solid tumor patient administered once daily", "type": "functional, organism-based"}, "[29]": {"test": "Toxicity in patient with chronic lymphocytic leukemia and lymphoma assessed as incidence of grade more than equal 3 fatigue at 600 mg, po qd for 21 days during phase 1 open label non-randomized trial relative to control", "type": "organism-based", "conditions": "human, in vivo, 504 h"}, "[30]": {"test": "Toxicity in patient with chronic lymphocytic leukemia and lymphoma assessed as incidence of grade more than equal 3 pyrexia at 600 mg, po qd for 21 days co-administered with paclitaxel and carboplatin during phase 1 open label non-randomized trial relative to control", "type": "organism-based", "conditions": "human, in vivo, 504 h"}, "[31]": {"test": "Toxicity in patient with chronic lymphocytic leukemia and lymphoma assessed as incidence of grade more than equal 3 neutrophenia at 600 mg, po qd for 21 days co-administered with paclitaxel and carboplatin during phase 1 open label non-randomized trial relative to control", "type": "organism-based", "conditions": "human, in vivo, 504 h"}, "[32]": {"test": "Toxicity in patient with chronic lymphocytic leukemia and lymphoma assessed as incidence of grade more than equal 3 anemia at 600 mg, po qd for 21 days co-administered with paclitaxel and carboplatin during phase 1 open label non-randomized trial relative to control", "type": "organism-based", "conditions": "human, in vivo, 504 h"}, "Homo sapiens [33]": {"test_system": "Homo sapiens", "test": "In vivo inhibition of PI3K in tumor tissue of po dosed solid tumor patient administered once daily", "type": "functional, organism-based"}}, "note": "Activity calls are given as the source filed them. The rule behind the calls is not given here."}
{"smiles": "COc1ccc(Cl)c(Nc2nc3ccccc3nc2NS(=O)(=O)c2cccc(NC(=O)C(C)(C)N)c2)c1", "note": "[PILARALISIB]", "values": [{"measurement": "Activity", "setting": "[1]", "result": 3, "unit": "%"}, {"measurement": "Activity", "setting": "[2]", "result": 4, "unit": "%"}, {"measurement": "Activity", "setting": "[3]", "result": "Toxic"}, {"measurement": "Activity", "setting": "[4]", "result": 4, "unit": "%"}, {"measurement": "Activity", "setting": "[5]", "result": 4, "unit": "%"}, {"measurement": "Activity", "setting": "[6]", "result": 0, "unit": "%"}, {"measurement": "Activity", "setting": "[7]", "result": 0, "unit": "%"}, {"measurement": "Activity", "setting": "[8]", "result": 4, "unit": "%"}, {"measurement": "Activity", "setting": "[9]", "result": 4, "unit": "%"}, {"measurement": "Activity", "setting": "[10]", "result": 6, "unit": "%"}, {"measurement": "Activity", "setting": "[11]", "result": 12, "unit": "%"}, {"measurement": "Activity", "setting": "[12]", "result": "Toxic"}, {"measurement": "Activity", "setting": "[13]", "result": 3, "unit": "%"}, {"measurement": "Activity", "setting": "[14]", "result": 0, "unit": "%"}, {"measurement": "Activity", "setting": "[15]", "result": "Toxic"}, {"measurement": "Activity", "setting": "[16]", "result": 0, "unit": "%"}, {"measurement": "Activity", "setting": "[17]", "result": 7, "unit": "%"}, {"measurement": "Activity", "setting": "[18]", "result": 4, "unit": "%"}, {"measurement": "Activity", "setting": "[19]", "result": 0, "unit": "%"}, {"measurement": "Activity", "setting": "[20]", "result": 4, "unit": "%"}, {"measurement": "Activity", "setting": "[21]", "result": 0, "unit": "%"}, {"measurement": "Activity", "setting": "[22]", "result": "Toxic"}, {"measurement": "Activity", "setting": "[23]", "result": 0, "unit": "%"}, {"measurement": "inhibition", "setting": "Homo sapiens [24]", "result": "Active"}, {"measurement": "inhibition", "setting": "Homo sapiens [25]", "result": "Active"}, {"measurement": "Activity", "setting": "[26]", "result": 0, "unit": "%"}, {"measurement": "Activity", "setting": "[27]", "result": 4, "unit": "%"}, {"measurement": "inhibition", "setting": "Homo sapiens [28]", "result": "Active"}, {"measurement": "Activity", "setting": "[29]", "result": 0, "unit": "%"}, {"measurement": "Activity", "setting": "[30]", "result": 0, "unit": "%"}, {"measurement": "Activity", "setting": "[31]", "result": 4, "unit": "%"}, {"measurement": "Activity", "setting": "[32]", "result": 0, "unit": "%"}, {"measurement": "inhibition", "setting": "Homo sapiens [33]", "result": "Active"}]}
